Experimental data taken from publication PMC6864781, “Synthesis, Antitumor Activity, and Docking Analysis of New Pyrido[3′,2′:4,5]furo(thieno)[3,2-d]pyrimidin-8-amines” (Molecules, 2019).
≈ marks a conversion by molar mass, not a printed value. Entries after “also recorded” stand apart in the source; their conditions may differ.

Assays:
Type in all cases: cell-based
[1] = tested on: DNA of tumor sarcoma 180 (S-180); test: Influence on methylation of DNA of tumor sarcoma 180 in vitro (5-MC content); details: 3 × 10^−6 M compound, 24 h at 37 °C; for Content of Bases in DNA, 5-MC ± ζ: tumor homogenate, S-180 control 0.64 ± 0.02, seven determinations; for inhibition at 3 µM: reduction of 5-MC content vs S-180 control, read-out: Inhibition of the Level of DNA Methylation; for Effect on tumor DNA methylation (in words): S-180
Experimental: It is known that DNA methylation in cancer plays a variety of roles, helping to change the healthy regulation of gene expression to a disease pattern. DNA hypermethylation in neoplasia is a specific epigenetic sign that can guide the diagnosis and treatment of this disease. We studied the effect of synthesized substances on tumor DNA in vitro. After the incubation of tumor cells with the studied compounds, the isolated DNA was hydrolyzed to nitrogen bases. In the studied DNA, the nucleotide composition (guanine (G), cytosine (C), 5-methylcitosine (5-MC), adenine (A), thymine (T)) complied with the rules of Chargaff. Isolated DNA belonged to the AT type, and the amount of basic bases (G + C + 5-MC) within them was 42.24–44.64 mol %, which is typical for eukaryotic DNA. Almost the same content of basic bases (G, C, A, and T) was observed, while a clear difference between DNA samples was found only in relation to the content of 5-MC, which indicated the demethylating ability of the compounds.
The influence of synthesized compounds on the methylation of DNA of tumor sarcoma 180 (S-180) was studied in vitro. Transplanted S-180 was isolated from animals after slaughter by decapitation under ether narcosis. A 3 × 10^−6 M solution of compounds (solvent: carboxymethylcellulose) was added to the tumor homogenate (12.5 mL of a solution per 10 g of tumor), and the mixture was incubated for 24 h at 37 °C. After the incubation, tumor DNA was extracted using the phenol–chloroform method. Hydrolysis to the nitrogen bases was carried out in sealed glass ampoules in 85% formic acid at 176 °C for 1 h (0.1 mL of acid per 1 mg of DNA). The separation of nitrogen bases (guanine (G), cytosine (C), 5-methylcitosine (5-MC), adenine (A), and thymine (T)) was produced by thin-layer chromatography in the solvent n-butanol/water/ammonia. Spectrophotometry of the eluates of all bases was made against eluates from the respective control areas of the chromatograms. In our studies, the well-known antitumor drug doxorubicin (manufactured by EBEWE Pharma Ges.m.b.H. Nfg. KG, 4866 Unterach, Austria) was used as a standard preparation. The data were statistically processed using Student’s and Fischer’s tests (p < 0.05).

[2] = tested on: Vero cells; test: Cell viability (MTT) assay, Vero; details: Chlorocebus sabaeus, Vero (normal cells), 72 h, read-out: IC50, antiproliferative activity
Experimental: (§1) Vero and HeLa cells were seeded in a 96-well culture plate at a density of 20,000 cells/well. The plates were preincubated in a 5% CO2/95% air-humidified atmosphere at 37 °C for 24 h to allow for adaptation of the cells prior to the addition of the test compounds. All compounds were dissolved in dimethyl sulfoxide (DMSO) prior to dilution (1 mg/mL stock solution). The 50% inhibitory concentration (IC50) was determined over a range of concentrations (0.5 μg/mL to 10 μg/mL). All cells were incubated for 72 h, and then cell viability was estimated using an MTT (3-(4,5-dimethylthiazol-2-yl)-2,5-diphenyltetrazolium bromide) assay, as previously described. Colorimetric measurements were performed on a microplate reader at 570 nm (Tecan Spectra II, Switzerland). The percentage of viable cells was calculated for each concentration as ((ODT/ODC) × 100), where ODT and ODC corresponded to the absorbance of the treated and control cells, respectively. The IC50 was calculated by using linear regression analysis.

[3] = tested on: HeLa cells; test: Cell viability (MTT) assay, HeLa; details: Homo sapiens, 72 h, read-out: IC50, antiproliferative activity
Experimental: as §1

SMILES | Content of Bases in DNA, 5-MC ± ζ [1] [mol %] | inhibition at 3 µM [1] [%] | Effect on tumor DNA methylation (in words) [1] | IC50 [2] [µg/mL] | IC50 [3] [µg/mL]
CC(C)c1nc2oc3c(NCCO)ncnc3c2c2c1COC(C)(C)C2 [Compound 7a] | 0.85 ± 0.03 |  |  |  | 
CCN(CC)CCNc1ncnc2c1sc1nc(-c3ccco3)c3c(c12)CCCC3 [Compound 5e, N,N-Diethyl-N′-[5-(2-furyl)-1,2,3,4-tetrahydropyrimido[4′,5′:4,5]thieno[2,3-c]isoquinolin-8-yl]ethane-1,2-diamine] | 0.46 ± 0.02 | 28.1 |  |  | 
CC(C)c1nc2oc3c(NCC4CCCO4)ncnc3c2c2c1COC(C)(C)C2 (stereo not shown) [Compound 7f, 5-Isopropyl-2,2-dimethyl-N-(tetrahydrofuran-2-ylmethyl)-1,4-dihydro-2H-pyrano[4″,3″:4′,5′]pyrido[3′,2′:4,5]furo[3,2-d]pyrimidin-8-amine] | 0.50 ± 0.02 | 21.9 |  |  | 
CC(C)c1nc2oc3c(NCc4ccco4)ncnc3c2c2c1COC(C)(C)C2 [Compound 7g, N-(2-Furylmethyl)-5-isopropyl-2,2-dimethyl-1,4-dihydro-2H-pyrano[4″,3″:4′,5′]pyrido[3′,2′:4,5]furo[3,2-d]pyrimidin-8-amine] | 0.38 ± 0.02 | 40.6 |  |  | 
CCN(CC)CCNc1ncnc2c1oc1nc(C(C)C)c3c(c12)CC(C)(C)OC3 [Compound 7c, N,N-Diethyl-N′-(5-isopropyl-2,2-dimethyl-1,4-dihydro-2H-pyrano[4″,3″:4′,5′]pyrido[3′,2′:4,5]furo[3,2-d]pyrimidin-8-yl)ethane-1,2-diamine] | 0.37 ± 0.01 | 42.2 |  |  | 
c1coc(-c2nc3sc4c(N5CCCCC5)ncnc4c3c3c2CCCC3)c1 [Compound 5a, 5-(2-Furyl)-8-piperidin-1-yl-1,2,3,4-tetrahydropyrimido[4′,5′:4,5]thieno[2,3-c]isoquinoline] | 0.38 ± 0.02 | 40.6 |  |  | 
CC(C)Cc1nc2oc3c(NCCCO)ncnc3c2c2c1COC(C)(C)C2 [Compound 7k] | 0.52 ± 0.01 | 18.8 |  |  | 
COc1ccc(CCNc2ncnc3c2oc2nc(C(C)C)c4c(c23)CC(C)(C)OC4)cc1OC [Compound 7e, N-[2-(3,4-Dimethoxyphenyl)ethyl]-5-isopropyl-2,2-dimethyl-1,4-dihydro-2H-pyrano[4″,3″:4′,5′]pyrido[3′,2′:4,5]furo[3,2-d]pyrimidin-8-amine] | 0.28 ± 0.01 | 56.2 |  |  | 
CC(C)Cc1nc2oc3c(NCCO)ncnc3c2c2c1COC(C)(C)C2 [Compound 7j, 2-[(5-Isobutyl-2,2-dimethyl-1,4-dihydro-2H-pyrano[4″,3″:4′,5′]pyrido[3′,2′:4,5]furo[3,2-d]pyrimidin-8-yl)amino]ethanol] |  |  | did not affect DNA methylation; also recorded: no activity |  | 
CC(C)c1nc2oc3c(NCCN(C)C)ncnc3c2c2c1COC(C)(C)C2 [Compound 7b] | 0.24 ± 0.01 | 62.5 |  | 13.7 ± 0.4 (≈ 35.7 µM) | 5.4 ± 0.2 (≈ 14.1 µM)
COc1cccc2c1C(=O)c1c(O)c3c(c(O)c1C2=O)C[C@@](O)(C(=O)CO)C[C@@H]3O[C@H]1C[C@H](N)[C@H](O)[C@H](C)O1 [Doxorubicin, doxorubicin, reference compound] | 0.21 ± 0.01 | 67.2 |  |  | 
CC(C)c1nc2sc3c(NCC4CCCO4)ncnc3c2c2c1COC(C)(C)C2 (stereo not shown) [Compound 7m, 5-Isopropyl-2,2-dimethyl-N-(tetrahydrofuran-2-ylmethyl)-1,4-dihydro-2H-pyrano[4″,3″:4′,5′]pyrido[3′,2′:4,5]thieno[3,2-d]pyrimidin-8-amine] | 0.40 ± 0.02 | 37.5 |  |  | 
CCOC(=O)N1CCN(c2ncnc3c2sc2nc(C(C)C)c4c(c23)CC(C)(C)OC4)CC1 [Compound 7l, Ethyl 4-(5-isopropyl-2,2-dimethyl-1,4-dihydro-2H-pyrano[4″,3″:4′,5′]pyrido[3′,2′:4,5]thieno[3,2-d]pyrimidin-8-yl)piperazine-1-carboxylate] | 0.45 ± 0.03 | 29.7 |  |  | 
CC(C)c1nc2oc3c(NCc4cccnc4)ncnc3c2c2c1COC(C)(C)C2 [Compound 7h] | 0.42 ± 0.02 | 34.4 |  |  | 
CC(C)c1nc2oc3c(NCCN4CCOCC4)ncnc3c2c2c1COC(C)(C)C2 [Compound 7d] | 0.33 ± 0.01 | 48.4 |  |  | 
c1coc(-c2nc3sc4c(N5CCOCC5)ncnc4c3c3c2CCCC3)c1 [Compound 5c, 5-(2-Furyl)-8-morpholin-4-yl-1,2,3,4-tetrahydropyrimido[4′,5′:4,5]thieno[2,3-c]isoquinoline] | 0.49 ± 0.02 | 23 |  |  | 
CC1CCN(c2ncnc3c2sc2nc(-c4ccco4)c4c(c23)CCCC4)CC1 [Compound 5b, 5-(2-Furyl)-8-(4-methylpiperidin-1-yl)-1,2,3,4-tetrahydropyrimido[4′,5′:4,5]thieno[2,3-c]isoquinoline] | 0.25 ± 0.02 | 60.9 |  | 16.8 ± 0.6 (≈ 41.5 µM) | 8.4 ± 0.2 (≈ 20.8 µM)
c1coc(-c2nc3sc4c(NCC5CCCO5)ncnc4c3c3c2CCCC3)c1 (stereo not shown) [Compound 5f, 5-(2-Furyl)-N-(tetrahydrofuran-2-ylmethyl)-1,2,3,4-tetrahydropyrimido[4′,5′:4,5]thieno[2,3-c]isoquinolin-8-amine] | 0.07 ± 0.02 | 89.1 |  | 6.4 ± 0.4 (≈ 15.7 µM) | 4.4 ± 0.3 (≈ 10.8 µM)
CC(C)CNc1ncnc2c1sc1nc(-c3ccco3)c3c(c12)CCCC3 [Compound 5d, 5-(2-Furyl)-N-isobutyl-1,2,3,4-tetrahydropyrimido[4′,5′:4,5]thieno[2,3-c]isoquinolin-8-amine] | 0.42 ± 0.03 | 34.4 |  |  | 
CC(C)c1nc2oc3c(NCCCN(C)C)ncnc3c2c2c1COC(C)(C)C2 [Compound 7i] |  |  | did not affect DNA methylation; also recorded: loss of activity |  | 
